Laboratory results from US9212349B2, “Method to produce virus in cultured cells” (priority 2011, dated 2015).

Experiments:
[1] = test system: HCMV (AD169 strain); type: cell-based, human cytomegalovirus; settings: for HCMV production relative to no treatment: Example 2, MRC5, 0.5 IU/cell, FIG. 2; for HCMV production relative to no treatment / HCMV yield, fold change relative to no treatment (NT): 96 h; for HCMV yield, fold change relative to no treatment (NT): MRC5, 0.5 IU/cell, additive 2 h after infection, OA/LA/LLA up to 100 μM, EPA 75 μM, DHA 50 μM, AG 250 μM, cholesterol 13 μM; for Effect of including the fatty acid on the HCMV yield increase given by aminoguanidine: in the presence of aminoguanidine
Protocol: Cells were infected with the AD169 strain of HCMV at a multiplicity of 0.5 infectious units/cell, and immediately following a 2-hour adsorption period, cells were fed with medium (Dulbecco's Modified Eagle Medium, DMEM) containing 10% fetal calf serum plus various fatty acids, cholesterol and carbonyl scavenging compound. At 96 hours post infection, infectious virus in the medium was assayed by fluorescent focus assay using antibody to the HCMV IE1 protein.
Briefly, About 90% confluent MRC5 human fibroblasts were infected with HCMV at a multiplicity of 0.5 IU/cell. Two hours after infection, medium was replaced with fresh medium containing 10% fetal calf serum and either of oleic acid (OA, up to about 100 μM), linoliec acid (LA, up to about 100 μM), α-linolenic acid (LLA, up to about 100 μM), eicosapentaenoic acid (EPA, up to about 75 μM), or docosahexaenoic acid (DHA, up to about 50 μM). The experiment was also performed in the presence of either aminoguanidine (AG, up to about 250 μM) or cholesterol (chol., up to about 13 μM). Virus production at 96 hours after infection was determined by fluorescent focus assay in MRC-5 cells and shown as a fold change relative to no treatment (NT) which was 5×10^5 infectious units. The fold-changes are the average of two independent infections.
Briefly, about 90% confluent MRC5 fibroblasts were infected with HCMV at a multiplicity of 0.5 IU/cell. Two hours after infection, medium was replaced with fresh medium containing 10% fetal calf serum and α-tocopherol (α-T) or aminoguanidine (AG) at indicated concentrations. Virus production at 96 h after infection was determined by fluorescent focus assay in which MRC-5 cells and shown as a fold change relative to no treatment (NT). The fold-changes are the average of two independent infections. Results are set out in FIG. 2.

[2] = test system: MRC5 cells; experiment: Cytotoxicity evident upon visual inspection in VZV-infected MRC5 cells; type: cell-based, human; settings: 100 μM
[3] = test system: VZV; experiment: Yield of cell-free infectious VZV from infected MRC5 cells, plaque assay on ARPE-19 cells; type: cell-based, varicella zoster virus; settings: for VZV yield, fold change relative to NT / VZV yield in comparison to no treatment: MOI 1:50, 72 h; for VZV yield in comparison to no treatment: Example 5, lipids at 6 hpi plus 10 μM αT, HSA, OSA 25 μM, sonicated immediately
Protocol: For this test, MRC5 cells (passage 20-25) were seeded at a density of 300.000 cell/100 mm culture dish and grown in 15 ml of DMEM containing 10% fetal calf serum plus 2 mM glutamax (Invitrogen) at 35° C. A lipid mixture (LM-1, 1 ml/liter medium, Sigma Aldrich #L5146) was added to the cells either at the time of seeding or 1 day after seeding. Three days later, the culture medium was replaced with 10 ml growth medium containing 50 mM sucrose as a stabilizer. The cells were further incubated for 3 days and growth medium was replaced with fresh medium containing no sucrose. After cells reached confluence, they were infected with VZV by adding infected cells (1 infected cell/50 uninfected cells; infected cells were from a preparation frozen in a solution of 10% DMSO plus 90% fetal calf serum and stored in liquid nitrogen). At the time of infection, the cultures were re-fed with DMEM containing 10% fetal calf serum plus 2 mM glutamax. Arachidonic acid (AA)+alpha-tocopherol (αT) or DHA+αT were added at the indicated times. 72 hours after infection, cells were washed twice with PBS, and incubated in 10 ml of PBS containing 50 mM ammonium chloride for 50 minutes at 4° C. The cells were harvested and frozen in PSGC buffer (Harper et al., Arch Virol 143:1163-70, 1998) at −80° C. Infectious virus was subsequently quantified by plaque assay of sonicated cells on ARPE-19 cells (American Type Culture Collection). Results are set out in FIG. 3.
Briefly, in these repeat experiments, MRC5 cells were infected with VZV at an MOI=1:50. AA, DHA, and αT were added to the cells at 6 hpi as indicated. 72 hours after infection, the cells were harvested into PSGC buffer and frozen at −80° C. for later processing. After thawing, the cells were sonicated and the yield of cell free VZV quantified by standard plaque assay on ARPE-19 cells. Fold change relative to no treatment (NT) is shown. […] The fold-changes are the average of two independent infections.
In brief, MRC5 cells were infected with VZV at an M01=1:50. Lipid mixture 1(LM-1) was added to the cells immediately after cell seeding. At 6 hours after infection, up to about 100 μM AA or […] was added to cells together with up to about 10 μM αT. 72 hours after infection, the cells were harvested into PSGC buffer and either frozen at −80° C. and sonicated later for the release of virus (frozen cells) or immediately sonicated after harvesting and supernatants containing the cell-free VZV were frozen at −80° C. (frozen sup.) prior to titration. Cell-free VZV yield was quantified by plaque assay on APRE-19 cells. Fold change relative to no treatment (NT) is shown. The numbers above the bars indicate the amount of virus obtained per ml in the corresponding treatment. The results are set out in FIG. 5.
Briefly, MRC5 cells were infected with VZV at an MOI=1:50. Six hours after infection cells were treated with indicated combinations of lipids plus 10 μM αT. Hexacosanoic acid (HSA) and octacosanoic acid (OSA) were dissolved in 20 mg/ml α-cyclodextin (Sigma-Aldrich) in PBS by sonication and added to a solution of 10 mg/ml fatty acid-free BSA (Sigma-Aldrich) in PBS (1:1, v/v) to give a stock concentration of 10 mM for each fatty acid. HSA, OSA, and DHA were used at 25 μM, and AA was used at 25 μM. Two sets of fatty acid concentrations was used for combination treatments: DHA, AA, and HSA was either added at concentrations of 25 μM, 100 μM, and 25 μM (high), or 10 μM, 50 μM, and 10 μM (low), respectively. 72 hours after infection, the cells were harvested into PSGC buffer, sonicated immediately and the yield of cell free VZV quantified by plaque assay on ARPE-19 cells. Fold change relative to no treatment (NT) is shown. The fold-changes are the average of two independent infections.
Briefly, MRC5 cells were grown in DMEM containing 10% fetal calf serum, 2 mM glutamax (Invitrogen) at 35° C. as described in the text. […]

[4] = test system: VZV; experiment: as above; type: cell-based, varicella zoster virus; settings: Example 6; MOI 1:100, 72 hours after infection; HSA, DHA 25 μM, AA 100 μM, with 10 μM α-T; cholesterol 13 μM
[5] = 25 μM fatty acid at 6 hpi, absence of αT

Compound: Cc1c(C)c2c(c(C)c1O)CC[C@@](C)(CCC[C@H](C)CCC[C@H](C)CCCC(C)C)O2 [αT, alpha-tocopherol]
- HCMV production relative to no treatment [1]: enhances the production of HCMV

Compound: CC/C=C\C/C=C\C/C=C\C/C=C\C/C=C\CCCC(=O)O [EPA, eicosapentaenoic acid]
- HCMV yield, fold change relative to no treatment (NT) [1]: 2.5 fold

Compound: N=C(N)NN [aminoguanidine]
- HCMV production relative to no treatment [1]: enhances the production of HCMV
- HCMV yield, fold change relative to no treatment (NT) [1]: about 2.6 fold

Compound: CC/C=C\C/C=C\C/C=C\C/C=C\C/C=C\C/C=C\CCC(=O)O [DHA, docosahexaenoic acid]
- HCMV yield, fold change relative to no treatment (NT) [1]: 4.6 fold
- Cytotoxicity ([2]; absence of αT): toxic
- Cytotoxicity ([2]; presence of αT): toxic
- VZV yield, fold change relative to NT [3, 5]: about 1.5 fold

Compound: CCCCC/C=C\C/C=C\CCCCCCCC(=O)O [LA, linoleic acid]
- HCMV yield, fold change relative to no treatment (NT) [1]: little effect on the yield
- Effect of including the fatty acid on the HCMV yield increase given by aminoguanidine ([1]; MRC5, 96 h): reduced

Compound: CC/C=C\C/C=C\C/C=C\CCCCCCCC(=O)O [LLA, α-linolenic acid]
- HCMV yield, fold change relative to no treatment (NT) [1]: about 1.2 fold
- Effect of including the fatty acid on the HCMV yield increase given by aminoguanidine ([1]; MRC5, 96 h): reduced

Compound: CCCCCCCCCCCCCCCCCCCCCCCCCCCC(=O)O [OSA, octacosanoic acid]
- VZV yield in comparison to no treatment [3]: improved virus yields

Compound: CCCCC/C=C\C/C=C\C/C=C\C/C=C\CCCC(=O)O [AA, Arachidonic acid]
- VZV yield relative to no treatment [4]: elevated the yield of VZV
- VZV yield, fold change relative to NT [3, 5]: enhanced the yield of virus
- VZV yield, fold change relative to NT ([3]; 25 μM fatty acid at 6 hpi, presence of αT): increased the virus yield
- VZV yield, fold change relative to NT ([3]; 100 μM fatty acid at 6 hpi, absence of αT): inhibited virus production
- VZV yield, fold change relative to NT ([3]; 100 μM fatty acid at 6 hpi, presence of αT): 5 fold

Compound: CCCCCCCC/C=C\CCCCCCCC(=O)O [OA, oleic acid]
- HCMV yield, fold change relative to no treatment (NT) [1]: reduced the yield
- Effect of including the fatty acid on the HCMV yield increase given by aminoguanidine ([1]; MRC5, 96 h): reduced
- Cytotoxicity ([2]; absence of αT): without causing observable cellular toxicity
- Reduction of VZV production, factor ([3]; 100 μM): 2 fold

Compound: CC(C)CCC[C@@H](C)[C@H]1CC[C@H]2[C@@H]3CC=C4C[C@@H](O)CC[C@]4(C)[C@H]3CC[C@]12C [cholesterol]
- HCMV yield, fold change relative to no treatment (NT) [1]: no effect
- Effect of cholesterol on the enhancing effects of fatty acids on HCMV yield ([1]; MRC5, 96 h, cholesterol up to about 13 μM): did not improve, and in some cases inhibited

Compound: CCCCCCCCCCCCCCCCCCCCCCCCCC(=O)O [HSA, hexacosanoic acid]
- VZV yield relative to no treatment [4]: elevated the yield of VZV
- VZV yield in comparison to no treatment [3]: improved virus yields
